Molecules are shown by their SMILES.

The series is described as follows: gradient 5% acetonitrile 3 min, to 50% in 2 min, to 85% in 15 min, held 3 min, 100 µL/min. Particulars: column: Zorbax Extend-C18 2.1 x 50 mm; eluents: water / acetonitrile, 0.1% formic acid. The essentials: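 Values are retention times taken from adduct peaks that software picked and an analyst inspected. The pure standards were run as mixtures of ~100 molecules on HPLC linked to a quadrupole time-of-flight mass spectrometer, in positive and negative ionization mode. A Zorbax Extend-C18 column (2.1 × 50 mm, 1.8 μm) was used at 100 μL/min with water and acetonitrile, each including 0.1% formic acid.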
In turn, `COc1ccc(-c2cnc(S(=O)(=O)CC(=O)NCc3ccccc3Cl)n2C)cc1` showed an RP-LC retention time of 819 s.
Next, `Cc1ccc(NS(=O)(=O)c2cn(CC(C)C)c3ncccc23)cc1`: 986 s; `O=C(Cn1ccc2ccc(N3CCOCC3)nc21)NCc1ccco1`: 773 s.
Next, `O=S(=O)(c1ccccc1)N1[C@H]2CC[C@@H]1c1cncnc1C2`: 678 s; `CCc1nn(CC)c(=O)c2cc(S(=O)(=O)NC(C)c3ccccc3)cn12` (centres undefined): 964 s.
For `Cc1cnc(C2CN(Cc3ccc(C(F)(F)F)cc3)C2)n1Cc1ccccc1` the value was 639 s.
With `Cc1ccc(N2CC(c3noc(-c4ccccc4OC(F)(F)F)n3)CC2=O)cc1` (centres undefined), the RP-LC retention time stood at 819 s.
As to `Cc1ccc(N2CCCS2(=O)=O)cc1NS(=O)(=O)CCc1ccccc1`, the RP-LC retention time came out at 784 s.
In the case of `O=S(=O)(c1ccc2c(c1)CCC2)N1CCC(c2noc(-c3cccc(F)c3)n2)CC1`, the RP-LC retention time worked out at 1260 s.
In turn, `Cn1nc(C(=O)N2CCCCC2)c2c1CCN(C(=O)CCC(=O)N1CCCCCC1)C2` came in with an RP-LC retention time of 668 s.
In the case of `CN1CCN(CC2CCC3(CCN(S(=O)(=O)c4ccc(C(C)(C)C)cc4)CC3)O2)CC1` (centres undefined), the RP-LC retention time was 665 s.
For `CCCNC(=O)COc1ccc(NC(=O)C2CC2)cn1` the value was 643 s; for `Cc1ccccc1N1C[C@@]23C=C[C@@H](O2)[C@H](C(=O)OC(C)C)[C@@H]3C1=O`, 785 s; for `CCOc1ccc(-c2noc(CN3C(=O)COc4cc(C)ccc43)n2)cc1`, 1110 s.
With `Cc1nc2c(sc3nc(-c4ccccc4)ccc32)c(=O)n1CC(=O)Nc1ccc(C(C)C)cc1`, the RP-LC retention time came to 1200 s.
Take `CN(CCc1noc(-c2ccc(C(=O)N3CCOCC3)cc2)n1)C(=O)COc1ccc(Cl)cc1`: the RP-LC retention time turned out to be 766 s.
Turning to `Cc1nncn1C1CN(C(=O)c2cc3ccccc3[nH]2)C1`, the RP-LC retention time was 623 s.
Compound `CCCNC(=O)C1CCN(c2ccc(SCC(=O)Nc3c(C)cccc3Cl)nn2)CC1` registered an RP-LC retention time of 1160 s.
`Cc1cccc(Sc2nccnc2N2CCCC(C(=O)NCc3ccc(C)c(C)c3)C2)c1` (centres undefined) displayed an RP-LC retention time of 1210 s.
For `CC1Oc2ccc(S(=O)(=O)N3CCC(C(=O)Nc4cccc(Cl)c4)CC3)cc2NC1=O` (centres undefined) the value was 891 s.
On to `CCOC(=O)c1c(C)[nH]c(C(=O)CC(=O)OC)c1C`, for which the RP-LC retention time was determined as 696 s.
Next, `O=C([C@H]1C[C@@H](F)CN1S(=O)(=O)c1ccc(Cl)cc1)N1CCOCC1`: 711 s; `CCc1ccc(NC(=O)NCC2CCOCC2)cc1`: 732 s.
Next, `CCOc1ccc(-c2csc(NC(=O)CCCOc3ccc(OC)cc3)n2)cc1`: 1080 s.
Next, `CCOC(=O)C1CCN(C(=O)Cn2nc3cc(-c4ccccc4)nc(C)n3c2=O)CC1`: 858 s.
As for `CN(C)CCCNC(=O)Cn1c(=O)n(-c2ccc(F)cc2)c2ncccc21`, the RP-LC retention time is 577 s.
As to `CC(C)c1ccc(NC(=O)C2CCCN2S(=O)(=O)c2cc3c(cc2Cl)NC(=O)CO3)cc1` (centres undefined), the RP-LC retention time amounted to 948 s.
For `COc1ccc(OC)c(CNC(=O)C2CCCN(c3ccc(=O)n(-c4ccc(C)c(Cl)c4)n3)C2)c1` (centres undefined) the value was 924 s; for `COc1ccc(OC)c(NC(=O)C(=O)c2c(C)n(C)c3ccccc23)c1`, 990 s; for `C=CCNC(=O)c1c2c(nc3ccc(C)cc13)CCC2`, 606 s.
Compound `COc1ccc(OC)c(CNC(=O)c2[nH]c3cc(C)sc3c2CN(C)C)c1` had an RP-LC retention time of 676 s.
In turn, `Cn1nc(C(=O)Nc2ccccc2F)cc1C(F)(F)F` returned an RP-LC retention time of 951 s.
Next, `COc1ccccc1OCCC1CCN(S(=O)(=O)c2c(C)nn(C)c2C)C1` (centres undefined): 861 s; `CCCS(=O)(=O)Nc1cccc(-c2cn3ccc(C)cc3n2)c1`: 614 s.
For `Cc1ccc(NC(=O)N2CCN(c3cc(-c4ccncc4)[nH]n3)CC2)c(C)c1` the value was 615 s; for `COC(=O)CC(NC(=O)N1CCCn2nc(-c3cccnc3)cc2C1)c1ccccc1` (centres undefined), 596 s.
For `COc1ccc(NC(=O)CN2CCc3[nH]c4c(C)cc(F)cc4c(=O)c3C2)cc1` the value was 600 s; for `CCCN(CC1CCOC1)C(=O)c1cc(F)ccc1Cl` (centres undefined), 821 s; for `COc1ccc(OCc2nc(-c3cccc(-c4ccn[nH]4)c3)no2)cc1`, 914 s.
Compound `O=C(NOCC1CC1)c1cc(Br)c(F)c(F)c1Nc1ccc(I)cc1Cl` yielded an RP-LC retention time of 1170 s.
For `Cn1nc2n(c1=O)CCC(NS(=O)(=O)c1cccc3cccnc13)CC2` (centres undefined) the value was 648 s.
Next, `CCCc1nc(-c2c(C)cc(C)nc2NC(=O)c2cccc(Br)c2)no1`: 1010 s.
For `COC(=O)c1cc(N2CCN(C)CC2)nc2c(C)cccc12` the value was 670 s; for `Cn1c(=O)oc2cc(-c3noc(CNC(=O)Cc4ccc(Cl)cc4)n3)ccc21`, 807 s.
In the case of `O=c1ccn(-c2ccc(F)c(F)c2)nc1-c1nc(-c2ccc3c(c2)OCO3)no1`, the RP-LC retention time worked out at 877 s.
Next, `Cc1cc(Nc2ccc(NC(=O)c3cnccn3)cc2)nc(N2CCCCC2)n1`: 588 s; `COc1ccc(-c2nccc(C3CCCN(C(=O)c4ccccc4)C3)n2)cc1` (centres undefined): 967 s; `O=C1CCC2(C(=O)N3CCN(c4ccccn4)CC3)CCC=C2N1C1CCCC1` (centres undefined): 579 s.
As to `C=CCNC(=O)C1CCCN(C(=O)Nc2ccc(NC(=O)Nc3ccc(CC)cc3)cc2)C1` (centres undefined), the RP-LC retention time amounted to 780 s.
For `CCOC(=O)c1c(C)oc2nc(C)nc(NC3CCN(Cc4ccccc4)CC3)c12` the value was 597 s; for `O=S(=O)(c1ccc(-c2noc(-c3cccc(Br)c3)n2)cc1)N1CCCC1`, 1290 s; for `O=C(Nc1ccccc1Cl)N1CCN(c2cc(-c3ccncc3)[nH]n2)CC1`, 600 s.
Next, `CCOc1ccc(C(O)CN2CCN(C3CCCCC3)CC2)cc1` (centres undefined): 569 s.
Regarding `Cc1cc(=O)n(CC(=O)Nc2ccccc2Cl)c(N2CCCCC2)n1`, the RP-LC retention time is 718 s.
`CC(C)CC(=O)Nc1ccc(OCc2cc(C(=O)NC(C)C)no2)cc1` returned an RP-LC retention time of 816 s.
`Cc1ccc(-c2nnc(-c3nc(NCc4ccccn4)c4ccccc4n3)o2)cc1` registered an RP-LC retention time of 703 s.
For `Cc1cc(C)n(-c2ccc(SCc3ccccc3Cl)nn2)n1` the value was 1150 s; for `CCOc1ccc(-c2nc(NC(=O)c3sc(C)nc3C)sc2C)cc1`, 976 s; for `CCN(CCN(C)C)c1ccc(C(=O)O)cc1NS(=O)(=O)c1cc(F)ccc1C`, 634 s.
Consider `CC(=O)N1c2ccc(S(=O)(=O)N3CCCCC3)cc2CC1C(=O)NCCCN1CCCCC1` (centres undefined), for which the RP-LC retention time worked out at 577 s.
For `COc1cccc(NS(=O)(=O)c2cc3c(s2)CCN(C(=O)C2CCC2)C3)c1` the value was 851 s; for `CNC(=O)N1CC(c2nc(-c3ccc(F)cc3)no2)C2(CCOCC2)C1` (centres undefined), 723 s; for `CC(=O)Nc1ccc2c(c1)nc(CN1CCN(C(=O)c3ccco3)CC1)n2C`, 576 s.
For `Cc1cccc2c(=O)n(C3CCN(S(=O)(=O)c4ccc(F)cc4F)CC3)cnc12` the value was 904 s.
For `CCCNC(=O)N1CCC2(CC1)NCCc1c2[nH]c2ccccc12` the value was 613 s; for `CCCN1C(=O)COc2ccc(-c3noc(-c4ccc5cc[nH]c5c4)n3)cc21`, 1110 s.
Consider `O=C(NCCCOC(=O)c1ccccc1)c1ccncc1`, for which the RP-LC retention time is 613 s.
For the compound `CC1=C(c2ccc(C)c(C)c2)S(=O)(=O)N=C1N1CCC(C(=O)NCCc2ccco2)CC1`, the RP-LC retention time is 884 s.
Consider `Cc1nnc2ccc(-c3noc(-c4ccc(Br)cc4)n3)cn12`, for which the RP-LC retention time was determined as 1030 s.
Regarding `CN1CCN(CCCNC(=O)C2CCc3sc(C(=O)N4CCCCCC4)cc3C2)CC1` (centres undefined), the RP-LC retention time stood at 581 s.
For `COCC(=O)N(CC(=O)N1CCc2sccc2C1COc1ccc(C)cc1)C(C)C` (centres undefined) the value was 867 s; for `COc1ccc(CNC(=O)c2cnc(N3CCC4(CC3)OCCO4)nc2N)c(OC)c1`, 640 s.
Next, `Cc1noc(C)c1CCNC(=O)C1CCN(C(=O)c2ncn3c2COC(c2ccc(F)cc2)C3)CC1` (centres undefined): 711 s; `CN1C(=O)C2(CCN(C(=O)COc3ccc(Cl)cc3)C2)c2ccccc21` (centres undefined): 838 s.
As for `COc1ccccc1-c1cnn2c(N3CCN(c4cccc(C)n4)CC3)cc(C)nc12`, the RP-LC retention time worked out at 638 s.
In turn, `CCOc1cccc(C(=O)Nc2nc(-c3ccc(OC)c(Br)c3)cs2)c1` registered an RP-LC retention time of 1280 s.
`CCOc1ccc(NC(=O)C2CCN(S(=O)(=O)c3ccc4c(c3)NC(=O)C(CC)O4)CC2)cc1` (centres undefined) registered an RP-LC retention time of 888 s.
`CC1(C)CC(=O)C2=C(C1)N(CC1CCCO1)C(=O)C2(NC(=O)c1ccc(F)cc1)C(F)(F)F` (centres undefined) returned an RP-LC retention time of 929 s.
For `Cc1cccc(-c2nc(Cn3nnc(-c4nc(-c5ccccc5Cl)no4)c3C)c(C)o2)c1` the value was 908 s.
